# Measurements from patent US9364480B2, “Pharmaceutical composition for preventing or treating cancer, containing enoblock as active ingredient” (GWANGJU INSTITUTE OF SCIENCE AND TECHNOLOGY, priority 2012, dated 2016).
# Key:
# [1] = test system: zebrafish larvae; experiment: Measurement of glucose uptake in zebrafish (2-NBDG); assay type: in vivo; conditions: 10 μg/mL
# Experimental: FIG. 12. […] (a) Schematic of our approach to measure the effect of ENOblock treatment on […] in zebrafish.
# At 72 hpf, larvae were placed into a 96-well plate (6 eggs/well in 200 μL E3 water supplemented with 0.2 mM 2-phenylthiourea; Sigma). Drug of interest was added for […]. The solution was then replaced with E3 water supplemented with 600 μM 2-NBDG and incubated for 3 h. The larva were washed with E3 water and anesthetized with 0.02% tricaine-supplemented E3 water. One larva was then placed on a chamber slide, containing 3% methylcellulose in E3 water, for fluorescent microscopy (Leica DM2500 microscope equipped with a DFC425 C digital camera). Images were captured at 50× magnification. The remaining 5 larvae where lysed with 120 μL of CelLytic M solution (Sigma-Aldrich) and sonication (4° C., 10″/5″ pulse, 10 min). Lysed larvae were centrifuged at 10000 rpm for 10 min. 100 μL of the supernatant was transferred to a 96-well plate and fluorescence was measured with a fluorescent microplate reader (SpectraMAX Gemini XS, Molecular Devices; λex=466 nm […]).
# [2] = target: T1, Enolase purified from rabbit muscle (Oryctolagus cuniculus, UniProt P25704); experiment: Enolase activity assay; assay type: biochemical; conditions: purified enolase
# T1 construct: Enolase purified from rabbit muscle was purchased from Sigma-Aldrich; purchased Sigma-Aldrich; host or cells: rabbit muscle
# Experimental: FIG. 4. […] (a) Affinity chromatography study for ENOblock in HCT116 cancer cells. […] (b) Sequence identification for the enolase monomer subunit. […] Mascot scores above 100 were deemed to be significant. […] Twenty micrograms of cell lysate from YD-10B oral cancer cells or Huh7 hepatocytes were used as positive controls. […] As a positive control, ENOblock affinity matrix was incubated with 200 μg of HCT 116 cell lysate; 50 μg cell lysate from HCT116 cancer cells was used as a positive control for the enolase antibody.
# Enolase purified from rabbit muscle was purchased from Sigma-Aldrich. A single unit of enolase is defined as the amount of enzyme that produces 1 μmol of phosphoenol pyruvate from phospho-D-glycerate/min in standard assay.^52 Enolase activity assay was measured at 37° C. by incubating pure enolase (3-9 U) in a buffer containing 50 mM imidazole-HCl (pH 6.8)(JUNSEI), 2.0 mM MgSO4 (JUNSEI) and 400 mM KCl (JUNSEI) in the absence or presence of ENOblock or NaF (Sigma). The reaction was initiated by adding 1 μmol of 2-phospho-D-glycerate, and the OD was measured after 10 min of reaction time with a spectrophometer at 240 nm.
# [3] = test system: pre-adipocytes undergoing adipogenesis; experiment: Adipogenesis lipid accumulation (Oil Red O staining); assay type: cell-based; conditions: without adipogenesis-inducing factors
# [4] = test system: PEPCK expression in HEK cells; experiment: PEPCK expression in kidney cells; assay type: cell-based; conditions: 1 μg/mL, 24 h
# Source text: FIG. 10. […] Error=SD; *=P<0.05 compared to the no drug (DMSO-treated) group. […] Error=SD; *=P<0.05 for reduced PEPCK expression compared to the no drug (DMSO-treated) group.
# [5] = target: recombinant enolase from Schistosoma mansoni (Schistosoma mansoni, UniProt Q27877); conditions: cited from earlier work
# [6] = target: purified enolase (Schistosoma mansoni, UniProt Q27877); conditions: cited from earlier work
# Chain of purified enolase (Q27877 whole entry): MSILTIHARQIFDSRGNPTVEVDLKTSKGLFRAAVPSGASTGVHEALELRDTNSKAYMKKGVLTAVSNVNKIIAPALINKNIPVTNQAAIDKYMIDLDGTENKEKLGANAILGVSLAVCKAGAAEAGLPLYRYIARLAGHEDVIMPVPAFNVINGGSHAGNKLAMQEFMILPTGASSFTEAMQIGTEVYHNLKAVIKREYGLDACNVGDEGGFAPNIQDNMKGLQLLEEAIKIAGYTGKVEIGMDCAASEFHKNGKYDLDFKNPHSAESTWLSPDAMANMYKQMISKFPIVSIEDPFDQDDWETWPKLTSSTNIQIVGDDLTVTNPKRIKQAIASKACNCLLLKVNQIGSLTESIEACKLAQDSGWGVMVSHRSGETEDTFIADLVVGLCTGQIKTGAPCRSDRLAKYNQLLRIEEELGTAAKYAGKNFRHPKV
# T1 sequence (P25704 whole entry): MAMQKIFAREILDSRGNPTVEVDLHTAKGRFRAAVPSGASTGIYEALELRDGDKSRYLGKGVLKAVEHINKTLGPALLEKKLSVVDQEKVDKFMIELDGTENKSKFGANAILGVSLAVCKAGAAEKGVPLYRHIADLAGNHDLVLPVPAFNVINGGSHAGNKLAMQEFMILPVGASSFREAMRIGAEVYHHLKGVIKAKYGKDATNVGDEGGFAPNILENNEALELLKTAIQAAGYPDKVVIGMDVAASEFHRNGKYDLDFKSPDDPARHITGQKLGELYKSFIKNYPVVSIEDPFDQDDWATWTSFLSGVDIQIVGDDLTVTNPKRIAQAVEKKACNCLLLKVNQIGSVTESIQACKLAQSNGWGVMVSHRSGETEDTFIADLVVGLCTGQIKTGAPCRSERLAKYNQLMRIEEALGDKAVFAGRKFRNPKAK
# Chain of recombinant enolase from Schistosoma mansoni (Q27877 whole entry): as the sequence (Q27877 whole entry) above
compound,measurement,setting,value
"Cc1cc(O)c2c(c1)C(=O)c1cc(O)cc(O)c1C2=O [emodin, 6-methyl-1,3,8-trihydroxyanthraquinone, reference compound]",glucose uptake in larvae (2-NBDG fluorescence microscopy),[1],enhanced glucose uptake in a similar but more intense pattern compared to the zebrafish treated with ENOblock
same,2-NBDG fluorescence signal intensity in the eye,"[1]; 72 hpf larvae, 4 h, vs 2-NBDG alone",induced significantly greater fluorescent tagged glucose uptake in the zebrafish eye
"[F-].[Na+] [NaF, sodium fluoride, reference compound]",treatment concentration giving enolase activity level approximated by 2.5 μM ENOblock,[2],1 mM
insulin: insulin,"lipid accumulation in preadipocytes (Oil Red O, microscopy)",[3],still induced lipid accumulation
same,PEPCK expression,[4],did not reduce PEPCK expression
OC(c1cc(C(F)(F)F)nc2c(C(F)(F)F)cccc12)C1CCCCN1 (stereo not shown) [mefloquine],direct binding to recombinant enolase,[5],could not directly bind to recombinant enolase from this parasite
same,inhibition of purified enolase activity,[6],could not inhibit purified enolase activity
